Experimental data published in US20230295575A1, “METHODS OF INCREASING MATURATION OF HEART, PANCREATIC BETA-CELLS, AND NEURONS” (Yissum Research Development Company of the Hebrew …, priority 2020, published 2023).

Key:
[1] = obese adults; cited from earlier work
[2] = 3 week-old rats; cited from earlier work
PPARα = molecular target: T1, PPARα (Homo sapiens, UniProt Q07869); settings: cited from earlier work
T1 sequence (Q07869 1-468): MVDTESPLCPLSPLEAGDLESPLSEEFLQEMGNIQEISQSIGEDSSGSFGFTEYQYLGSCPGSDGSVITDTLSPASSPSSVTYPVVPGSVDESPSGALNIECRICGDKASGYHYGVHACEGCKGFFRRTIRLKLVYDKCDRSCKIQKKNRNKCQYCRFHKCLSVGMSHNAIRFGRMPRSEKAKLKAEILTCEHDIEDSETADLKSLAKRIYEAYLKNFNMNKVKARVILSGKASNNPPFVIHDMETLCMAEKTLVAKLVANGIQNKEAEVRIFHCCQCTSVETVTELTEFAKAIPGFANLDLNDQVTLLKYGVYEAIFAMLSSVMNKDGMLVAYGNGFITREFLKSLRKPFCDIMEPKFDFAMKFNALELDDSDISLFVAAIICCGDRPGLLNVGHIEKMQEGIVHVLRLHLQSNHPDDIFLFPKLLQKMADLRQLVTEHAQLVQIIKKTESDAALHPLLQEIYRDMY

[3] = healthy individuals; cited from earlier work
[4] = test system: pluripotent stem cells derived cardiomyocytes; experiment: Immunofluorescence / cell shape analysis of stem cell-derived cardiomyocytes; type: cell-based, human; settings: OA+9CLA+GW9662
Description: Cultured cells were fixed using 4% paraformaldehyde for 15 minutes at room temperature. Cells were then permeabilized in blocking solution (2% bovine serum albumin (BSA) and 0.25% Triton X-100 in PBS) for one hour at room temperature and incubated with primary antibodies (Table 13 below) for an additional hour. Following washes, cells were incubated with secondary antibodies (Table 14 below) for 1 hour at room temperature in blocking solution, washed twice in PBS and counterstained with 1 µg/ml Hoechest 33258 (Sigma Aldrich, USA) for 5 minutes. Imaging was performed on a Zeiss LSM 700 confocal microscope. Staining of actin was carried out simultaneously with secondary antibody incubation step by adding a 1:100 of Rhodamine-Phalloidin solution. Microscopic single cell and mitochondrial shape analysis was carried out using the CellProfiler software. Mitochondrial elongation was scored from 0 to 1, where 0 corresponds to a circle and 1 to a rectangle.
(§1) Cells were seeded on Matrigel in mTeSR-1 medium and allowed to reach 80-90% confluence. Cardiac differentiation was conducted as previously described (Burridge, P. W. et al. Chemically defined generation of human cardiomyocytes. Nat Methods 11, 855-860, 2014). Briefly, a basal medium named CDM3 was used (RPMI-1640, 500 µg/mL recombinant human serum albumin, 213 µg/mL L-ascorbic acid 2-phosphate and 1% penicillin/streptomycin). […]

[5] = test system: stem cell-derived cardiomyocytes; experiment: Seahorse MitoStress analysis of stem cell-derived cardiomyocytes; type: cell-based, human
Description: as §1, with “penicillin/streptomycin). At day zero of differentiation, the medium was replaced with CDM3 supplemented with 6 µmol/L CHIR99021 (Stemgent) for two days. At day two of the differentiation the culture-medium was switched to CDM3 medium supplemented with 2 µM Wnt-C59 (Selleckchem), for additional two days. From day four onward, cells were cultured with RPMI supplemented with B27-I (B27 supplement without Insulin; Gibco, USA).” for “penicillin/streptomycin).”
Mitochondrial function was measured using the Seahorse XF Cell Mito Stress Test Kit according to the manufacturer’s instructions (Agilent, Santa Clara, CA). […] The basal oxygen consumption rate (OCR) was measured for 30 minutes and then injected 1 µM oligomycin, a mitochondrial complex V inhibitor that blocks oxidative phosphorylation. […]

human muscle cells = settings: cited from earlier work
adipocytes = settings: short term exposure; cited from earlier work
UN1 iPSC = experiment: Fatty acid supplementation at different steps of 4-step cardiac differentiation; type: cell-based, human; settings: preliminary studies
Description: FIGS. 3A-B. Addition of OA+9CLA during differentiation impairs differentiation. (A) Light Microscopy of UN1 iPSC during 4-step cardiac differentiation (methods) supplemented with 100 µM oleic acid and 50 µM 9CLA at different steps. […] (B) Quantification of portion of complete well death (left) and portion of beating wells resulted by supplementation with 100 µM oleic acid and 50 µM 9CLA at different steps of the 4-step cardiac differentiation (n=24; methods).
as §1, with “penicillin/streptomycin). At day zero of differentiation, the medium was replaced with CDM3 supplemented with 6 µmol/L CHIR99021 (Stemgent) for two days. At day two of the differentiation the culture-medium was switched to CDM3 medium supplemented with 2 µM Wnt-C59 (Selleckchem), for additional two days. From day four onward, cells were cultured with RPMI supplemented with B27-I (B27 supplement without Insulin; Gibco, USA).” for “penicillin/streptomycin).”

[6] = human subjects; cited from earlier work
[7] = test system: human embryonic stem cells; settings: hESC on mouse fibroblast feeder layers; cited from earlier work

Molecule: CCCCCC/C=C/C=C\CCCCCCCC(=O)O [9CLA, 9Z,11E-octadeca-9,11-dienoic acid]
- insulin sensitivity and lipid peroxidation [1]: increasing
- effect of treatment [2]: did not have a beneficial effect
- activity at PPARα (PPARα): agonist
- low density lipoproteins (LDL) [3]: decreasing

Molecule: O=C(Nc1ccccc1)c1cc([N+](=O)[O-])ccc1Cl [GW9662]
- effect of PPARα/γ inhibition on OA+9CLA-induced cell area increase [4]: reversed
- effect of GW9662 on the effect of postnatal lipids, in all cases ([5]; all readouts (respiration, glycolysis, cell area, gene expression), 10 µM GW9662): reversed
- effect of GW9662 on fatty acid-induced respiration increase and glycolysis decrease ([5]; short-term exposure to GW9662 with OA+9CLA): reversed both effects

Molecule: conjugated linoleic acid [CLA]
- myogenic gene expression (human muscle cells): suppressed myogenic gene expression
- differentiation of mature adipocytes (adipocytes): delayed the differentiation of mature adipocytes
- outcome of addition during cardiomyocyte differentiation (UN1 iPSC): immature fibroblast-like cells that did not start beating
- outcome of addition on terminally differentiated beating cardiomyocytes (UN1 iPSC): mature cardiomyocytes
- effect on endothelial function [6]: negative effect
- decrease of differentiation of stem cell colonies [7]: 20%
